Values quoted from earlier work, collected in patent publication US20010037025A1, “New compounds, their preparation and use” (priority 1998, published 2001).

System: RAR
Settings: literature statement, Heyman et al. Cell 1992

## CC1=C(/C=C/C(C)=C/C=C/C(C)=C/C(=O)O)C(C)(C)CCC1 [all-trans RA]
  activation of / selectivity for RAR: displays selectivity for RAR
